# Assay results published in the NIST ThermoML archive (doi:10.1021/acs.jced.9b00540).
# Numbers after ± are expanded uncertainties.
# Assay: xn = mol fraction of the nth substance listed
# Settings: Liquid
compound,measurement,setting,value
CCOC(F)(C(F)(F)C(F)(F)C(F)(F)F)C(F)(C(F)(F)F)C(F)(F)F (stereo not given) [2-trifluoromethyl-3-ethoxydodecafluorohexane] + CC(C)OC(C)C,viscosity,"313.15 K, 100000 kPa, Falling or rolling sphere viscometry, x1 = 0.75",2.663 ± 0.059 mPa·s
same,viscosity,"313.15 K, 100000 kPa, Falling or rolling sphere viscometry, x1 = 1",4.307 ± 0.096 mPa·s
same,viscosity,"333.15 K, 100 kPa, Capillary tube (Ostwald / Ubbelohde) method, x1 = 0.25",0.311 ± 0.007 mPa·s
same,viscosity,"333.15 K, 100 kPa, Capillary tube (Ostwald / Ubbelohde) method, x1 = 0.375",0.356 ± 0.008 mPa·s
same,viscosity,"333.15 K, 100 kPa, Capillary tube (Ostwald / Ubbelohde) method, x1 = 0.5",0.416 ± 0.009 mPa·s
same,viscosity,"333.15 K, 100 kPa, Capillary tube (Ostwald / Ubbelohde) method, x1 = 0.625",0.486 ± 0.01 mPa·s
same,viscosity,"333.15 K, 100 kPa, Capillary tube (Ostwald / Ubbelohde) method, x1 = 0.75",0.574 ± 0.012 mPa·s
same,viscosity,"333.15 K, 100 kPa, Capillary tube (Ostwald / Ubbelohde) method, x1 = 1",0.739 ± 0.016 mPa·s
same,viscosity,"333.15 K, 20000 kPa, Falling or rolling sphere viscometry, x1 = 0.25",0.393 ± 0.009 mPa·s
same,viscosity,"333.15 K, 20000 kPa, Falling or rolling sphere viscometry, x1 = 0.375",0.488 ± 0.011 mPa·s
same,viscosity,"333.15 K, 20000 kPa, Falling or rolling sphere viscometry, x1 = 0.5",0.56 ± 0.012 mPa·s
same,viscosity,"333.15 K, 20000 kPa, Falling or rolling sphere viscometry, x1 = 0.625",0.644 ± 0.014 mPa·s
same,viscosity,"333.15 K, 20000 kPa, Falling or rolling sphere viscometry, x1 = 0.75",0.754 ± 0.017 mPa·s
same,viscosity,"333.15 K, 20000 kPa, Falling or rolling sphere viscometry, x1 = 1",1.032 ± 0.023 mPa·s
same,viscosity,"333.15 K, 40000 kPa, Falling or rolling sphere viscometry, x1 = 0.25",0.491 ± 0.011 mPa·s
same,viscosity,"333.15 K, 40000 kPa, Falling or rolling sphere viscometry, x1 = 0.375",0.604 ± 0.013 mPa·s
same,viscosity,"333.15 K, 40000 kPa, Falling or rolling sphere viscometry, x1 = 0.5",0.707 ± 0.015 mPa·s
same,viscosity,"333.15 K, 40000 kPa, Falling or rolling sphere viscometry, x1 = 0.625",0.826 ± 0.018 mPa·s
same,viscosity,"333.15 K, 40000 kPa, Falling or rolling sphere viscometry, x1 = 0.75",0.982 ± 0.022 mPa·s
same,viscosity,"333.15 K, 40000 kPa, Falling or rolling sphere viscometry, x1 = 1",1.41 ± 0.031 mPa·s
same,viscosity,"333.15 K, 60000 kPa, Falling or rolling sphere viscometry, x1 = 0.25",0.595 ± 0.013 mPa·s
same,viscosity,"333.15 K, 60000 kPa, Falling or rolling sphere viscometry, x1 = 0.375",0.735 ± 0.016 mPa·s
same,viscosity,"333.15 K, 60000 kPa, Falling or rolling sphere viscometry, x1 = 0.5",0.875 ± 0.019 mPa·s
same,viscosity,"333.15 K, 60000 kPa, Falling or rolling sphere viscometry, x1 = 0.625",1.035 ± 0.023 mPa·s
same,viscosity,"333.15 K, 60000 kPa, Falling or rolling sphere viscometry, x1 = 0.75",1.252 ± 0.027 mPa·s
same,viscosity,"333.15 K, 60000 kPa, Falling or rolling sphere viscometry, x1 = 1",1.87 ± 0.041 mPa·s
same,viscosity,"333.15 K, 80000 kPa, Falling or rolling sphere viscometry, x1 = 0.25",0.706 ± 0.015 mPa·s
same,viscosity,"333.15 K, 80000 kPa, Falling or rolling sphere viscometry, x1 = 0.375",0.884 ± 0.019 mPa·s
same,viscosity,"333.15 K, 80000 kPa, Falling or rolling sphere viscometry, x1 = 0.5",1.067 ± 0.023 mPa·s
same,viscosity,"333.15 K, 80000 kPa, Falling or rolling sphere viscometry, x1 = 0.625",1.277 ± 0.028 mPa·s
same,viscosity,"333.15 K, 80000 kPa, Falling or rolling sphere viscometry, x1 = 0.75",1.574 ± 0.034 mPa·s
same,viscosity,"333.15 K, 80000 kPa, Falling or rolling sphere viscometry, x1 = 1",2.427 ± 0.053 mPa·s
same,viscosity,"333.15 K, 100000 kPa, Falling or rolling sphere viscometry, x1 = 0.25",0.822 ± 0.018 mPa·s
same,viscosity,"333.15 K, 100000 kPa, Falling or rolling sphere viscometry, x1 = 0.375",1.051 ± 0.023 mPa·s
same,viscosity,"333.15 K, 100000 kPa, Falling or rolling sphere viscometry, x1 = 0.5",1.283 ± 0.028 mPa·s
same,viscosity,"333.15 K, 100000 kPa, Falling or rolling sphere viscometry, x1 = 0.625",1.557 ± 0.034 mPa·s
same,viscosity,"333.15 K, 100000 kPa, Falling or rolling sphere viscometry, x1 = 0.75",1.958 ± 0.043 mPa·s
same,viscosity,"333.15 K, 100000 kPa, Falling or rolling sphere viscometry, x1 = 1",3.105 ± 0.068 mPa·s
same,viscosity,"353.15 K, 100 kPa, Capillary tube (Ostwald / Ubbelohde) method, x1 = 0.75",0.465 ± 0.01 mPa·s
same,viscosity,"353.15 K, 100 kPa, Capillary tube (Ostwald / Ubbelohde) method, x1 = 1",0.576 ± 0.012 mPa·s
same,viscosity,"353.15 K, 20000 kPa, Falling or rolling sphere viscometry, x1 = 0.25",0.34 ± 0.007 mPa·s
same,viscosity,"353.15 K, 20000 kPa, Falling or rolling sphere viscometry, x1 = 0.375",0.399 ± 0.009 mPa·s
same,viscosity,"353.15 K, 20000 kPa, Falling or rolling sphere viscometry, x1 = 0.5",0.442 ± 0.01 mPa·s
same,viscosity,"353.15 K, 20000 kPa, Falling or rolling sphere viscometry, x1 = 0.625",0.499 ± 0.011 mPa·s
same,viscosity,"353.15 K, 20000 kPa, Falling or rolling sphere viscometry, x1 = 0.75",0.591 ± 0.013 mPa·s
same,viscosity,"353.15 K, 20000 kPa, Falling or rolling sphere viscometry, x1 = 1",0.799 ± 0.018 mPa·s
same,viscosity,"353.15 K, 40000 kPa, Falling or rolling sphere viscometry, x1 = 0.25",0.428 ± 0.009 mPa·s
same,viscosity,"353.15 K, 40000 kPa, Falling or rolling sphere viscometry, x1 = 0.375",0.508 ± 0.011 mPa·s
same,viscosity,"353.15 K, 40000 kPa, Falling or rolling sphere viscometry, x1 = 0.5",0.578 ± 0.013 mPa·s
same,viscosity,"353.15 K, 40000 kPa, Falling or rolling sphere viscometry, x1 = 0.625",0.66 ± 0.015 mPa·s
same,viscosity,"353.15 K, 40000 kPa, Falling or rolling sphere viscometry, x1 = 0.75",0.773 ± 0.017 mPa·s
same,viscosity,"353.15 K, 40000 kPa, Falling or rolling sphere viscometry, x1 = 1",1.084 ± 0.024 mPa·s
same,viscosity,"353.15 K, 60000 kPa, Falling or rolling sphere viscometry, x1 = 0.25",0.517 ± 0.011 mPa·s
same,viscosity,"353.15 K, 60000 kPa, Falling or rolling sphere viscometry, x1 = 0.375",0.622 ± 0.014 mPa·s
same,viscosity,"353.15 K, 60000 kPa, Falling or rolling sphere viscometry, x1 = 0.5",0.724 ± 0.016 mPa·s
same,viscosity,"353.15 K, 60000 kPa, Falling or rolling sphere viscometry, x1 = 0.625",0.836 ± 0.018 mPa·s
same,viscosity,"353.15 K, 60000 kPa, Falling or rolling sphere viscometry, x1 = 0.75",0.997 ± 0.022 mPa·s
same,viscosity,"353.15 K, 60000 kPa, Falling or rolling sphere viscometry, x1 = 1",1.418 ± 0.031 mPa·s
same,viscosity,"353.15 K, 80000 kPa, Falling or rolling sphere viscometry, x1 = 0.25",0.61 ± 0.013 mPa·s
same,viscosity,"353.15 K, 80000 kPa, Falling or rolling sphere viscometry, x1 = 0.375",0.739 ± 0.016 mPa·s
same,viscosity,"353.15 K, 80000 kPa, Falling or rolling sphere viscometry, x1 = 0.5",0.879 ± 0.019 mPa·s
same,viscosity,"353.15 K, 80000 kPa, Falling or rolling sphere viscometry, x1 = 0.625",1.025 ± 0.022 mPa·s
same,viscosity,"353.15 K, 80000 kPa, Falling or rolling sphere viscometry, x1 = 0.75",1.245 ± 0.027 mPa·s
same,viscosity,"353.15 K, 80000 kPa, Falling or rolling sphere viscometry, x1 = 1",1.808 ± 0.04 mPa·s
same,viscosity,"353.15 K, 100000 kPa, Falling or rolling sphere viscometry, x1 = 0.25",0.706 ± 0.015 mPa·s
same,viscosity,"353.15 K, 100000 kPa, Falling or rolling sphere viscometry, x1 = 0.375",0.855 ± 0.019 mPa·s
same,viscosity,"353.15 K, 100000 kPa, Falling or rolling sphere viscometry, x1 = 0.5",1.037 ± 0.022 mPa·s
same,viscosity,"353.15 K, 100000 kPa, Falling or rolling sphere viscometry, x1 = 0.625",1.223 ± 0.027 mPa·s
same,viscosity,"353.15 K, 100000 kPa, Falling or rolling sphere viscometry, x1 = 0.75",1.504 ± 0.033 mPa·s
same,viscosity,"353.15 K, 100000 kPa, Falling or rolling sphere viscometry, x1 = 1",2.265 ± 0.049 mPa·s
